Source: paper PMC11514586, “Development of Novel ROCK Inhibitors via 3D-QSAR and Molecular Docking Studies: A Framework for Multi-Target Drug Design” (Pharmaceutics, 2024)

Tests used:
Format in all cases: biochemical
[1] = molecular target: T1, ROCK2 (Homo sapiens, UniProt O75116); test: radiometric […]-ATP P81 filter binding kinase assay, 10-dose IC50 ([…] ATP)
[2] = molecular target: ROCK1 (Homo sapiens, UniProt Q13464); test: as above
[3] = molecular target: T1, ROCK2; test: radiometric […]-ATP kinase assay, single concentration […], percent inhibition

T1 sequence (O75116 whole entry): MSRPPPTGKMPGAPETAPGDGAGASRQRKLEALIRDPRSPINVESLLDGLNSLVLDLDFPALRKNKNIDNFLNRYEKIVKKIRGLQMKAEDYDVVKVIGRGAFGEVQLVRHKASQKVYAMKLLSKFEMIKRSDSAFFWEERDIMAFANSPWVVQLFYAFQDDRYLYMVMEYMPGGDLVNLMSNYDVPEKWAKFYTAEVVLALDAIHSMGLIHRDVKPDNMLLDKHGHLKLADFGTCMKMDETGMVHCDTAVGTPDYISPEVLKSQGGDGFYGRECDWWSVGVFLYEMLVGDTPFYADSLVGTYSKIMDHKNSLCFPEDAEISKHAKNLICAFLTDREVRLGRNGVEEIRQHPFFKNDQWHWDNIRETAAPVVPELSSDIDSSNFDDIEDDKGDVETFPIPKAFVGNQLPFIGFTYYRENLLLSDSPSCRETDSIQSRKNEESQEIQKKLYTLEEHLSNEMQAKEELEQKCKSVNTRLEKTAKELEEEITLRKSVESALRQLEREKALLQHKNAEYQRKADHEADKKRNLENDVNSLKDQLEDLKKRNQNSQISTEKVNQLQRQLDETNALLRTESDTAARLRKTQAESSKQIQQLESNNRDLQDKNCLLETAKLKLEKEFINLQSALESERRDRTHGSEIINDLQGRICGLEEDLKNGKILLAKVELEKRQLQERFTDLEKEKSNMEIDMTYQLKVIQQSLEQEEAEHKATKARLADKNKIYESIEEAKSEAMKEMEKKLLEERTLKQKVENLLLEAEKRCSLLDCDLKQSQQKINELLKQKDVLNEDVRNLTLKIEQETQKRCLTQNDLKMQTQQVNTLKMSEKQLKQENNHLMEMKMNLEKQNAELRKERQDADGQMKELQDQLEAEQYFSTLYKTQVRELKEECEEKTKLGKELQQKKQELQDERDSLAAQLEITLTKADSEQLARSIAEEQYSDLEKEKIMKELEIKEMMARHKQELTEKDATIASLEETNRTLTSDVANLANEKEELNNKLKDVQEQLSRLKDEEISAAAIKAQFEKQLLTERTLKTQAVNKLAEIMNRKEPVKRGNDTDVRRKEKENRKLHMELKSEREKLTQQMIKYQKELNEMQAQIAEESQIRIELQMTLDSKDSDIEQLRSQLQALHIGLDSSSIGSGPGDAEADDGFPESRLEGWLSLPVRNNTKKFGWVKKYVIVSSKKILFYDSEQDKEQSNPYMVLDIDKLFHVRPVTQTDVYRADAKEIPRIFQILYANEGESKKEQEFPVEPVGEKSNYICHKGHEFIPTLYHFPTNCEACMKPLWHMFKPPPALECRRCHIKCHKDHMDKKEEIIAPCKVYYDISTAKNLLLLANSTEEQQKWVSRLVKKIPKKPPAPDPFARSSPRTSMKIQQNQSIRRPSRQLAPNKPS
ROCK1, sequence (Q13464 2-1354): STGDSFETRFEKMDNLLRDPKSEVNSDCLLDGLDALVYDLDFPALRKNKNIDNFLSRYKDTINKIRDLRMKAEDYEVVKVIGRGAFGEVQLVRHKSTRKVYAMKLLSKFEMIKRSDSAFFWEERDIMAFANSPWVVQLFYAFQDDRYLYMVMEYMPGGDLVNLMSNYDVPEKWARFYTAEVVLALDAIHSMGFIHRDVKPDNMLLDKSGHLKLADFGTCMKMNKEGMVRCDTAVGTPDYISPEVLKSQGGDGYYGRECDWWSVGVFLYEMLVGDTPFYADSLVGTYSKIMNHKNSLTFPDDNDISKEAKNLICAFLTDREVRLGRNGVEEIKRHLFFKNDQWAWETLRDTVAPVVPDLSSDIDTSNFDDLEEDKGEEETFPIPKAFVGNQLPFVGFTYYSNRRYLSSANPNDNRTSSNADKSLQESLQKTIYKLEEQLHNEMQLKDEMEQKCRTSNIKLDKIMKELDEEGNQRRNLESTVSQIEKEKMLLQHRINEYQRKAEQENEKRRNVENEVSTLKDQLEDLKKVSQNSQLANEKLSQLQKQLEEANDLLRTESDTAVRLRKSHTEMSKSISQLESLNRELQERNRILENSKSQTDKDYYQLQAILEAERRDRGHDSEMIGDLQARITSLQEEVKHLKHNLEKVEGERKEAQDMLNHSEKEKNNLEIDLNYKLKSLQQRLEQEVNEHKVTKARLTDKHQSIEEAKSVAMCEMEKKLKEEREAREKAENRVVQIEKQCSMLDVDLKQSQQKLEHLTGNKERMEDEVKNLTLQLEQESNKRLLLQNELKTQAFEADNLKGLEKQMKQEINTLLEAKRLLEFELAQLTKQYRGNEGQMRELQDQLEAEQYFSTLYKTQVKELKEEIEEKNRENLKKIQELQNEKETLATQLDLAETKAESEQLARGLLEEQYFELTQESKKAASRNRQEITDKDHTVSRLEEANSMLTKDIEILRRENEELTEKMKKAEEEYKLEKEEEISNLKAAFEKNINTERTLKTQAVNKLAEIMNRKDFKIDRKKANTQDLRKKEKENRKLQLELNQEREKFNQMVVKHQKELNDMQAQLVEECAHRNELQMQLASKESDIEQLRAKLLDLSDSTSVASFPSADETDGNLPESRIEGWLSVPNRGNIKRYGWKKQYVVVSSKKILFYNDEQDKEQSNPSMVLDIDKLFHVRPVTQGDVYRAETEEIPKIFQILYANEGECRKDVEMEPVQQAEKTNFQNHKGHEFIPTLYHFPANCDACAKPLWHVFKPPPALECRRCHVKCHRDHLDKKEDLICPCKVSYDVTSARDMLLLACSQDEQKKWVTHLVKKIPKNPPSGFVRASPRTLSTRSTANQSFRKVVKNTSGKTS

| IC50 [1] [µM] | IC50 [2] [µM] | inhibition at 10 µM [3] [%] | SMILES |
| --- | --- | --- | --- |
| 6.13 | 4.22 | – | Cc1cc(F)ccc1CN1CCCN(S(=O)(=O)c2cccc3cnccc23)CC1 [C-19, 5-[4-(4-Fluoro-2-methyl-benzyl)-[1,4]diazepane-1sulfonyl]-isoquinoline] |
| – | – | 72.5 | COc1cc(CN2CCCN(C(=O)/C=C/c3ccncc3)CC2)ccc1O [C-22, 1-[4-(4-Hydroxy-3-methoxy-benzyl)-[1,4]diazepan-1-yl]-3-pyridin-4-yl-propenone] |
